Laboratory results published in patent US20110230481A2, “DERIVATIVES OF TETRABROMOBENZIMIDAZOLE, A PROCESS FOR THE PREPARATION THEREOF, A PHARMACEUTICAL COMPOSITION COMPRISING THE SAME, A METHOD OF USING THE SAME, A METHOD FOR MODULATING OR REGULATING SERINE/THREONINE KINASES, AND SERINE/THREONINE KINASES MODULATING AGENT” (SELVITA S.A., priority 2009, published 2011).

Experiments:
Test in all cases: KINOMEscan Max
Assay type in all cases: binding
[1] = molecular target: T1, PKAC-alpha (Homo sapiens, UniProt P17612)
T1 construct: purchased Ambit (KINOMEscan Max service)
Experimental: (§1) Kinase panel profiling was performed at Ambit Kinomescan (http://www.ambitbio.com/technology/) using the “KINOMEscan™ Max” assay platform, a high-throughput method for screening small molecule compounds against large numbers of human kinases. KINOMEscan™ is based on a competition binding assay that quantitatively measures the ability of a compound to compete with an immobilized, active-site directed ligand. The assay is performed by combining three components: DNA-tagged kinase; immobilized ligand; and a test compound. The ability of the test compound to compete with the immobilized ligand is measured via quantitative PCR of the DNA tag. For a description of Ambit's assay protocol, see Fabian et al. A small molecule-kinase interaction map for clinical kinase inhibitors. Nat. Biotechnol. 23, 329-336 (2005).

[2] = molecular target: T2, PYK2 (Homo sapiens, UniProt Q14289)
T2 construct: DNA tag (qPCR read-out)
Experimental: as §1

[3] = molecular target: T3, LOK (Homo sapiens, UniProt O94804); conditions: 1 μM
T3 construct: purchased Ambit Kinomescan (contract panel)
Experimental: as §1

[4] = molecular target: T4, EGFR(G719S) (Homo sapiens, UniProt P00533, G719S); conditions: 1 μM
T4 construct: purchased Ambit (KINOMEscan Max panel service)
Experimental: as §1

[5] = molecular target: T5, PRKD2 (Homo sapiens, UniProt Q9BZL6)
T5 construct: DNA tag (qPCR read-out)
Experimental: as §1

[6] = molecular target: T6, CSNK2A1 (Homo sapiens, UniProt P68400)
T6 construct: purchased Ambit (KINOMEscan Max panel service)
Experimental: as §1

[7] = molecular target: CAMK2A (Homo sapiens, UniProt Q9UQM7)
Experimental: as §1

[8] = molecular target: T7, EPHB2 (Homo sapiens, UniProt P29323); conditions: 1 μM
T7 construct: purchased Ambit (KINOMEscan Max service)
T7 sequence (P29323 19-1055): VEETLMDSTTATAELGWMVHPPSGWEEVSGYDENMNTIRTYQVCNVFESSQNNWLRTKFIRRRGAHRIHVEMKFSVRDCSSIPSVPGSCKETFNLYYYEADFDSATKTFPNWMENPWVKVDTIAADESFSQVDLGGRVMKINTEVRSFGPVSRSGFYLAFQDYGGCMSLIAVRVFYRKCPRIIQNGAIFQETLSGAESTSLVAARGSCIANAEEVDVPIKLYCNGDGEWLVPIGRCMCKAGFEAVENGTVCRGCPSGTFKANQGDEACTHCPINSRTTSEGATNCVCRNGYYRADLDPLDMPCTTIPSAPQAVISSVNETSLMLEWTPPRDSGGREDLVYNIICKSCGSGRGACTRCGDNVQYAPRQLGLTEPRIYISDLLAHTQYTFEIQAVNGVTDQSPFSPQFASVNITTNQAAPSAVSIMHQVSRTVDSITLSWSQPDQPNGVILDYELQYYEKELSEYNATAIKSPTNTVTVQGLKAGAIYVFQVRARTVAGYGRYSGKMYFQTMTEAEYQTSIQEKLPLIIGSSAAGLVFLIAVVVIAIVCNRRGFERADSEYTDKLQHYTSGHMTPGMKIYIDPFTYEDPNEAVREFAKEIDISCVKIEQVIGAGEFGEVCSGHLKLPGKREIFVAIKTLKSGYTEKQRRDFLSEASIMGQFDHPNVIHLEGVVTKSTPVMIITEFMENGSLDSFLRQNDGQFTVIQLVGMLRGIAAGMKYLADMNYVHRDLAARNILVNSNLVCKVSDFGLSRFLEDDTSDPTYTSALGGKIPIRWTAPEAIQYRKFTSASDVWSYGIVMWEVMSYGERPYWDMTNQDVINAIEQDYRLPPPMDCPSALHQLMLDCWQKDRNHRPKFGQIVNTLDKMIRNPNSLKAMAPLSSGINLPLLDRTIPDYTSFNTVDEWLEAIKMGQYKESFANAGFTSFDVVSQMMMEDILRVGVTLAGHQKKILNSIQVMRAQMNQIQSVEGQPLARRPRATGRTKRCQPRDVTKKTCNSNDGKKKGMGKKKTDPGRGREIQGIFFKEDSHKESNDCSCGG
Experimental: as §1

[9] = molecular target: T8, ASK1 (Homo sapiens, UniProt Q99683)
T8 construct: DNA tag (qPCR label); purchased Ambit Kinomescan (contract screening)
Experimental: as §1

[10] = molecular target: T9, FAK (Homo sapiens, UniProt Q05397)
T9 construct: DNA tag (qPCR read-out)
Experimental: as §1

[11] = molecular target: T10, LTK (Homo sapiens, UniProt P29376)
T10 construct: purchased Ambit Kinomescan (contract panel)
T10 sequence (P29376 17-864): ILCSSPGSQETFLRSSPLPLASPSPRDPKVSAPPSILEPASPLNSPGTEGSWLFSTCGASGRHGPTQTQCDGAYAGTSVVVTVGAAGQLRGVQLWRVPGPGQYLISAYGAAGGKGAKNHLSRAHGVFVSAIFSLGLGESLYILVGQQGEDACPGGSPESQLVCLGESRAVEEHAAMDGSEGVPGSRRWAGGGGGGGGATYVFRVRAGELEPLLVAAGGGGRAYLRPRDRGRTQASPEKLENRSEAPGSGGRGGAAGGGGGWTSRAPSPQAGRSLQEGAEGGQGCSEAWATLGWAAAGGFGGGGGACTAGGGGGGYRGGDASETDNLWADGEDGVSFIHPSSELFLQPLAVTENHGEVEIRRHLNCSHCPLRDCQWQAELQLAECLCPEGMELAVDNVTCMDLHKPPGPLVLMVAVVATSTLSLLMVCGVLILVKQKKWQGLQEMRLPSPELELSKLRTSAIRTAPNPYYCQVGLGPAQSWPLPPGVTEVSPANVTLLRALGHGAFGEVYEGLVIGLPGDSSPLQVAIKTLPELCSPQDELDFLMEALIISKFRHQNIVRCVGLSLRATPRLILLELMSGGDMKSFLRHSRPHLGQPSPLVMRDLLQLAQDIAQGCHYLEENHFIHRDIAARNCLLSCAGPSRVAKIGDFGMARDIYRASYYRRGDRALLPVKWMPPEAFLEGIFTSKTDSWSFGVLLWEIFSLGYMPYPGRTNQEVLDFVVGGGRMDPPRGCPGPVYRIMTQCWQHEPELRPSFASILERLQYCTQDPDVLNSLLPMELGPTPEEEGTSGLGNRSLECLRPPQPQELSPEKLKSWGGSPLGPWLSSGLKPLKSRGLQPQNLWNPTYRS
Experimental: as §1

[12] = molecular target: T11, MYLK4 (Homo sapiens, UniProt Q86YV6)
T11 construct: DNA tag (qPCR read-out); purchased Ambit Kinomescan
Experimental: as §1

[13] = molecular target: T12, PIK3CB (Homo sapiens, UniProt P42338)
T12 construct: DNA tag (qPCR read-out)
T12 sequence (P42338 whole entry): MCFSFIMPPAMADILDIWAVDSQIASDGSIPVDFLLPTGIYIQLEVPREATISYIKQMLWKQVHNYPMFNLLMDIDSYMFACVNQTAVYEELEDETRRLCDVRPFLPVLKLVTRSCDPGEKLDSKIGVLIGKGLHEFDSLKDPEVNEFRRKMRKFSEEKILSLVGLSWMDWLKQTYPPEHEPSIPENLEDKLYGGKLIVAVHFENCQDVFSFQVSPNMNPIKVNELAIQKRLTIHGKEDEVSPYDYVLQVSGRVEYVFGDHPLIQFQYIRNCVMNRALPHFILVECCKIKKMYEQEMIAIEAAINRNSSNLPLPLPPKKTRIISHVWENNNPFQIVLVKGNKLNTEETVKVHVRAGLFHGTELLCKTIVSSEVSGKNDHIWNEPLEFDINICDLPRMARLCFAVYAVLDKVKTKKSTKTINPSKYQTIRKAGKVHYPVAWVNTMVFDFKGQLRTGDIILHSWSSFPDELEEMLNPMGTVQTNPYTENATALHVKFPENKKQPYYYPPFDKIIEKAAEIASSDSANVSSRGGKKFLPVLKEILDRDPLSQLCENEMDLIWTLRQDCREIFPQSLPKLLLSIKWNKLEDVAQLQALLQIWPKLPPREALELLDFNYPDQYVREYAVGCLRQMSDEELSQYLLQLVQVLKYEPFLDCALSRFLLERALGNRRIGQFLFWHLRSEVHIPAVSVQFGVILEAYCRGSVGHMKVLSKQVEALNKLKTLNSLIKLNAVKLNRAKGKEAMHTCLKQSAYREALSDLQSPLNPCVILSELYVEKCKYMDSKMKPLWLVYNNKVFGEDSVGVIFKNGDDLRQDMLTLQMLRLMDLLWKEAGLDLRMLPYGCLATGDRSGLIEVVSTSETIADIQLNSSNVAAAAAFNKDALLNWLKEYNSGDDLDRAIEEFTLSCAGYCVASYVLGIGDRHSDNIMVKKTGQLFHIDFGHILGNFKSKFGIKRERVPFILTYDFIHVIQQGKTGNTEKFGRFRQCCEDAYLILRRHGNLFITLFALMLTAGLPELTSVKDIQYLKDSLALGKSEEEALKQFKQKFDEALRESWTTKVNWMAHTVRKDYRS
Experimental: as §1

[14] = molecular target: DAPK3 (Homo sapiens, UniProt O43293)
Experimental: as §1

[15] = molecular target: T13, YSK1 (Homo sapiens, UniProt O00506)
T13 construct: purchased Ambit Kinomescan (contract screening service)
Experimental: as §1

[16] = molecular target: T14, PRKG2 (Homo sapiens, UniProt Q13237)
T14 construct: DNA tag (qPCR read-out); purchased Ambit Kinomescan
Experimental: as §1

[17] = molecular target: MLK2 (Homo sapiens, UniProt Q02779)
Experimental: as §1

[18] = molecular target: T15, KIT(V559D) (Homo sapiens, UniProt P10721, V559D)
T15 construct: purchased Ambit Kinomescan (contract screening)
Experimental: as §1

[19] = molecular target: T16, CDKL2 (Homo sapiens, UniProt Q92772)
T16 construct: purchased Ambit (KINOMEscan Max service)
T16 sequence (Q92772 whole entry): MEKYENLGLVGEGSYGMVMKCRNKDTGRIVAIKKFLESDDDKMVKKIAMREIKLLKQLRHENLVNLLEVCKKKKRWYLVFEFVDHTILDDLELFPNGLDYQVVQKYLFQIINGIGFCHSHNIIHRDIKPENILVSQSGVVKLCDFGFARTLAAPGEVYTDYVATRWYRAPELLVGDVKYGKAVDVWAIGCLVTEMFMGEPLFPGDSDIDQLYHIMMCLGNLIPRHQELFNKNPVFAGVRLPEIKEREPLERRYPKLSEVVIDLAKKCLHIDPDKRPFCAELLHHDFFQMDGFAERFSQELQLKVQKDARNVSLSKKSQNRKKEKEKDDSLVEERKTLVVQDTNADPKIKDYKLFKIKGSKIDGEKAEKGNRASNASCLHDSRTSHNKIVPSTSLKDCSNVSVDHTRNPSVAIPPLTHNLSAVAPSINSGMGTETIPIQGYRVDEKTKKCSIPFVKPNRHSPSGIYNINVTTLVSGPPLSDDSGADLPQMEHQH
Experimental: as §1

[20] = molecular target: CTK (Homo sapiens, UniProt P42679)
Experimental: as §1

[21] = molecular target: T17, NEK11 (Homo sapiens, UniProt Q8NG66)
T17 construct: DNA tag (qPCR read-out)
Experimental: as §1

[22] = molecular target: T18, JAK3(JH1domain-catalytic) (Homo sapiens, UniProt P52333)
T18 construct: JAK3(JH1domain-catalytic); purchased Ambit Kinomescan (contract panel)
Experimental: as §1

[23] = molecular target: ABL1(T315I)-nonphosphorylated (Homo sapiens, UniProt P00519, T315I)
Experimental: as §1

[24] = molecular target: T19, TLK1 (Homo sapiens, UniProt Q9UKI8)
T19 construct: DNA tag (qPCR read-out)
Experimental: as §1

[25] = molecular target: T20, PIK3CA(Q546K) (Homo sapiens, UniProt P42336, Q546K)
T20 construct: DNA tag (qPCR read-out)
T20 sequence (P42336 whole entry Q546K): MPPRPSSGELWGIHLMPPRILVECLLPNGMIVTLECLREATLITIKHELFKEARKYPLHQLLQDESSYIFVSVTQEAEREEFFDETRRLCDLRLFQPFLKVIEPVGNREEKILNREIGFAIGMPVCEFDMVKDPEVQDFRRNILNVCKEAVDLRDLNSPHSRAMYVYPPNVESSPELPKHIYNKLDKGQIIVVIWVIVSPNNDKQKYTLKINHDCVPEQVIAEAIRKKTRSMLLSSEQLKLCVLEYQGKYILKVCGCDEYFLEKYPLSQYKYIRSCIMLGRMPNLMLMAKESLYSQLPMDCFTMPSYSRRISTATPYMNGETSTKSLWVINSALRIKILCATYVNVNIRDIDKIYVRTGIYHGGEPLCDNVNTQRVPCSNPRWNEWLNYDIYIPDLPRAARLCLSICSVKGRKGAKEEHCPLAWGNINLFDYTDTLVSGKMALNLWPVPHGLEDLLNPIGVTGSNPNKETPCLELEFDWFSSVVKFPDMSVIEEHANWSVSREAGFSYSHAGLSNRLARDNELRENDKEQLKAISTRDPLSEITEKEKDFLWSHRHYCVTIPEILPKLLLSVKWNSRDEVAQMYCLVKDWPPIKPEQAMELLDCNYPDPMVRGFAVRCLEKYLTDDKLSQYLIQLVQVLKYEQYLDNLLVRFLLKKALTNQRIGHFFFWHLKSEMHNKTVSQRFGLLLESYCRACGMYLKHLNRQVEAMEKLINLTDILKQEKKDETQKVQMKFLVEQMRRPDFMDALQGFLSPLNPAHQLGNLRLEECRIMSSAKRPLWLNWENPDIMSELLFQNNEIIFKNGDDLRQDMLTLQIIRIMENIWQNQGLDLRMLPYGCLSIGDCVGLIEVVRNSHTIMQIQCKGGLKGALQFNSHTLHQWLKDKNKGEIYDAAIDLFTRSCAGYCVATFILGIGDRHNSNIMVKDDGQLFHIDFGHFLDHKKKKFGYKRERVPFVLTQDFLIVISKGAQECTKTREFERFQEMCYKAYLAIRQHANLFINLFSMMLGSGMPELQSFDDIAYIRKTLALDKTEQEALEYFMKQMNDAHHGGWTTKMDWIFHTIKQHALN
Experimental: as §1

[26] = molecular target: T21, RAF1 (Homo sapiens, UniProt P04049)
T21 construct: DNA tag (qPCR read-out)
Experimental: as §1

[27] = molecular target: T22, CAMKK1 (Homo sapiens, UniProt Q8N5S9)
T22 construct: DNA tag (qPCR label); purchased Ambit Kinomescan (contract screening)
T22 sequence (Q8N5S9 whole entry): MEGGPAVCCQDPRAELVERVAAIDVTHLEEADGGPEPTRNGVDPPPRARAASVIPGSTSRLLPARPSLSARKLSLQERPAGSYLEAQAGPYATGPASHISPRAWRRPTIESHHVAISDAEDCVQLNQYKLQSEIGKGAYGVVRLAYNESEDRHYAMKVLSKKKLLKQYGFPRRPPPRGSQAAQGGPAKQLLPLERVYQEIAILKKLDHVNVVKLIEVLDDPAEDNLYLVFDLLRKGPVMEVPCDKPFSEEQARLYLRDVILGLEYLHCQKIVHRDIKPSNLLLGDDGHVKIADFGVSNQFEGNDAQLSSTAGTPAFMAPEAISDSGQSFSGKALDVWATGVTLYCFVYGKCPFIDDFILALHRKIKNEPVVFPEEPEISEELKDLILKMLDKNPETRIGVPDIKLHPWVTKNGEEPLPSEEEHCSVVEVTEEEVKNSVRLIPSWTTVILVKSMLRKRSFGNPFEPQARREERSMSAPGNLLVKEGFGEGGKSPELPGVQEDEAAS
Experimental: as §1

[28] = molecular target: ABL1(M351T)-phosphorylated (Homo sapiens, UniProt P00519, M351T)
Experimental: as §1

[29] = molecular target: T23, TEC (Homo sapiens, UniProt P42680)
T23 construct: purchased Ambit Kinomescan (contract screening service)
Experimental: as §1

[30] = molecular target: DCAMKL1 (Homo sapiens, UniProt O15075); conditions: 1 μM
Experimental: as §1

[31] = molecular target: T24, TLK2 (Homo sapiens, UniProt Q86UE8)
T24 construct: purchased Ambit Kinomescan (contract screening service)
Experimental: as §1

[32] = molecular target: T25, PIK3CA (Homo sapiens, UniProt P42336)
T25 construct: DNA tag (qPCR read-out)
T25 sequence (P42336 whole entry): as the sequence (P42336 whole entry Q546K) above, with K546Q counted along it
Experimental: as §1

[33] = molecular target: PAK3 (Homo sapiens, UniProt O75914)
Experimental: as §1

[34] = molecular target: T26, ERBB2 (Homo sapiens, UniProt P04626)
T26 construct: purchased Ambit Kinomescan (contract panel, KINOMEscan Max)
Experimental: as §1

For NCCCNc1nc2c(Br)c(Br)c(Br)c(Br)c2[nH]1 [Compound 11, N-(3-aminopropyl)-4,5,6,7-tetrabromo-1H-benzo[d]imidazol-2-amine], the remaining binding at 1 µM [1] was 68%, the remaining binding at 1 µM [2] was 100% and the “% binding” value [3] was 100%. The “% binding” value [4] was 100%, the remaining binding at 1 µM [5] was 42% and the remaining binding at 1 µM [6] was 100%. The remaining binding at 1 µM [7] was 96%, the “% binding” value [8] was 72% and the remaining binding at 1 µM [9] was 100%. It also gave a remaining binding at 1 µM [10] of 89%, a remaining binding at 1 µM [11] of 100% and a remaining binding at 1 µM [12] of 24%. For the same molecule, the remaining binding at 1 µM [13] was 100%, the remaining binding at 1 µM [14] was 73% and the remaining binding at 1 µM [15] was 100%. For the same molecule, the remaining binding at 1 µM [16] was 7%, the remaining binding at 1 µM [17] was 100% and the remaining binding at 1 µM [18] was 97%. It also gave a remaining binding at 1 µM [19] of 85%, a remaining binding at 1 µM [20] of 74% and a remaining binding at 1 µM [21] of 89%. It also gave a remaining binding at 1 µM [22] of 100%, a remaining binding at 1 µM [23] of 100% and a remaining binding at 1 µM [24] of 89%. The remaining binding at 1 µM [25] was 100%, the remaining binding at 1 µM [26] was 86% and the remaining binding at 1 µM [27] was 100%. For the same molecule, the remaining binding at 1 µM [28] was 100%, the remaining binding at 1 µM [29] was 100% and the “% binding” value [30] was 96%. It also gave a remaining binding at 1 µM [31] of 100%, a remaining binding at 1 µM [32] of 100% and a remaining binding at 1 µM [33] of 91%. For the same molecule, the remaining binding at 1 µM [34] was 100%.
